A word on the IC50: it is the concentration at which inhibition is half-maximal.

Common to all, as to format: biochemical
For one test, the target named is T1, SGK2 (Homo sapiens, UniProt Q9HBY8).
T1 sequence (Q9HBY8 1-367): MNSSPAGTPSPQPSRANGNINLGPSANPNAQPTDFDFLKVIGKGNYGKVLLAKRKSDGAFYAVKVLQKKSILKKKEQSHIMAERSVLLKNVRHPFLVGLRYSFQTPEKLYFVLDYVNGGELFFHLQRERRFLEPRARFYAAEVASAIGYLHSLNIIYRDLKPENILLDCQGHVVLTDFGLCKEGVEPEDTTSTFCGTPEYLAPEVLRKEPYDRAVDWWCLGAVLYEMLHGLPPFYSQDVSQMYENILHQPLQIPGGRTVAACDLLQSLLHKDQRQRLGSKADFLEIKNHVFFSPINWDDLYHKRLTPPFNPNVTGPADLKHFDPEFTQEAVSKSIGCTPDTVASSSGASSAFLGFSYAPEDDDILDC
Briefly: in vitro kinase assay.

The target of a further test is T2, SGK3 (Homo sapiens, UniProt Q96BR1).
T2 sequence (Q96BR1 1-496): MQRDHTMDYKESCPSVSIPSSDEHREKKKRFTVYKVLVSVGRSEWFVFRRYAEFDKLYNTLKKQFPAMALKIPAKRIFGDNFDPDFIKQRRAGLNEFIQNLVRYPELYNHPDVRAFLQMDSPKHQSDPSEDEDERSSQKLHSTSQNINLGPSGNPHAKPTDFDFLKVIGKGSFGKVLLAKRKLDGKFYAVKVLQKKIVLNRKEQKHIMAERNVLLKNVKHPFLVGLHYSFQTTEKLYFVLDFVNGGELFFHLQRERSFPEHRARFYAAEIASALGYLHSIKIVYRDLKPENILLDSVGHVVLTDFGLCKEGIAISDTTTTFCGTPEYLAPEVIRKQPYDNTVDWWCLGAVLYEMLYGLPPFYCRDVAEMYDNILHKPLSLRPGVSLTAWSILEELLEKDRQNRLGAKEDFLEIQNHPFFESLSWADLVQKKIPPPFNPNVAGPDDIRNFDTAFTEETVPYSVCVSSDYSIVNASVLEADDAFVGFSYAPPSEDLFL
Nature of the test: in vitro kinase assay.

The next test has as its target T3, S6K (Homo sapiens, UniProt P23443).
T3 construct: gene RPS6KB1; recombinant S6K
Briefly: recombinant in vitro kinase assay.

T3 sequence (P23443 whole entry): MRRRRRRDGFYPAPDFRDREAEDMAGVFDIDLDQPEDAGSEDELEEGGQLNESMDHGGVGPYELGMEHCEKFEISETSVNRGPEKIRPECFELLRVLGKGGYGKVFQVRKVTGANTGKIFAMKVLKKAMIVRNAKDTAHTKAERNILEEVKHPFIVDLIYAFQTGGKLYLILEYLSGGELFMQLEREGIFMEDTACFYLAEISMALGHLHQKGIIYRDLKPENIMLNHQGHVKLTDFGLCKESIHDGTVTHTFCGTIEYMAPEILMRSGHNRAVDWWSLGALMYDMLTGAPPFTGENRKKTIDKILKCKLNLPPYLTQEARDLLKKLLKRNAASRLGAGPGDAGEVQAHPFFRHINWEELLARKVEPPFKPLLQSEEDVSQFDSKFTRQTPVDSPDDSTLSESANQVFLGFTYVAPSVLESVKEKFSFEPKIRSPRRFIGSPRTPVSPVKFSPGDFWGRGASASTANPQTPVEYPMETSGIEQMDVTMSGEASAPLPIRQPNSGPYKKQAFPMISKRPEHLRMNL

As to `Nc1n[nH]c2nc(-c3ccc(NS(=O)(=O)c4cccc(Cl)c4Cl)cc3)cnc12` [SGK1-inh], the IC50 against SGK2 turned out to be 2.8 nM; on SGK3, 590 nM; at S6K, 33 nM.

Source of the values: publication PMC4982440, “PDK1-SGK1 Signaling Sustains AKT-Independent mTORC1 Activation and Confers Resistance to PI3Kα Inhibition” (Cancer Cell, 2016).
